Assay results reported in ChEMBL document CHEMBL3872274, “Synthesis and immunological evaluation of a low molecular weight saccharide with TLR-4 agonist activity” (Bioorg Med Chem, 2017).
Active and inactive are the calls of the source. No cut-off for these calls is given here.

Tests used:
[1] = biological target: T1, Toll-like receptor 4 (Mus musculus) (UniProt Q9QUK6); assay: Agonist activity at TLR-4 in C57BL/6 mouse peritoneal exudate macrophages assessed as increase in IL-6 production at 1 to 5 ug/ml at 24 hrs post dose by ELISA relative to (Cyclohexyl-2-phthalimido-3,4,6-tri-O-acetyl-beta-D-glucopyranosyl)-2-O-acetyl-3-O-benzoyl-4,6-O-pyruvate-beta-D-galactopyranose
T1 sequence (whole entry): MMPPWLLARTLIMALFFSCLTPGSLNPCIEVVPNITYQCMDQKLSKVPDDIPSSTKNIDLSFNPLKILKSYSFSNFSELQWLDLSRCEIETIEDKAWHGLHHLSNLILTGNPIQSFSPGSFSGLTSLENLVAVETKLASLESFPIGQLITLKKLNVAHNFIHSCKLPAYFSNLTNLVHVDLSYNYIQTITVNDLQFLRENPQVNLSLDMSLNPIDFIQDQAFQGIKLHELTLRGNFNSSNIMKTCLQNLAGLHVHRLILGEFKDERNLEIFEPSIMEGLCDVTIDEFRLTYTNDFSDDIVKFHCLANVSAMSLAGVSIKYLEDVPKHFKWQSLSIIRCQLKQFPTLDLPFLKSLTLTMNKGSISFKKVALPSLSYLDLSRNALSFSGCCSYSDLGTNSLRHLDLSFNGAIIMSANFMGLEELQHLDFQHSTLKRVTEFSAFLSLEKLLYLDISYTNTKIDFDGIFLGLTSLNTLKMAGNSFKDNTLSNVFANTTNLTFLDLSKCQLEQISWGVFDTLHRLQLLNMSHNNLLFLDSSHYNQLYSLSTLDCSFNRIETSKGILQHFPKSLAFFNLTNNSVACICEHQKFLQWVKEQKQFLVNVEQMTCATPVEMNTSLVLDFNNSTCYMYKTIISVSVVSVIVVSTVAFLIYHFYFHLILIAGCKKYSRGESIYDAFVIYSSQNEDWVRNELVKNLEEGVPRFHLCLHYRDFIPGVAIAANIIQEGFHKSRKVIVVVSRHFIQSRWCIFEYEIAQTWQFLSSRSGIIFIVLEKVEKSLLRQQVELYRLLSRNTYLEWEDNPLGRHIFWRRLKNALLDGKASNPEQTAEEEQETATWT

[2] = biological target: Toll-like receptor 2 (Mus musculus) (UniProt Q9QUN7); assay: Binding affinity to TLR-2 in C57BL/6 mouse peritoneal exudate macrophages assessed as cells binding to PE conjugated anti-TLR-2 monoclonal antibody at 10 ug/ml preincubated for 4 hrs followed by antibody addition by flow cytometry (reference value: 30.8%)
Toll-like receptor 2 (Mus musculus), sequence (Q9QUN7 whole entry): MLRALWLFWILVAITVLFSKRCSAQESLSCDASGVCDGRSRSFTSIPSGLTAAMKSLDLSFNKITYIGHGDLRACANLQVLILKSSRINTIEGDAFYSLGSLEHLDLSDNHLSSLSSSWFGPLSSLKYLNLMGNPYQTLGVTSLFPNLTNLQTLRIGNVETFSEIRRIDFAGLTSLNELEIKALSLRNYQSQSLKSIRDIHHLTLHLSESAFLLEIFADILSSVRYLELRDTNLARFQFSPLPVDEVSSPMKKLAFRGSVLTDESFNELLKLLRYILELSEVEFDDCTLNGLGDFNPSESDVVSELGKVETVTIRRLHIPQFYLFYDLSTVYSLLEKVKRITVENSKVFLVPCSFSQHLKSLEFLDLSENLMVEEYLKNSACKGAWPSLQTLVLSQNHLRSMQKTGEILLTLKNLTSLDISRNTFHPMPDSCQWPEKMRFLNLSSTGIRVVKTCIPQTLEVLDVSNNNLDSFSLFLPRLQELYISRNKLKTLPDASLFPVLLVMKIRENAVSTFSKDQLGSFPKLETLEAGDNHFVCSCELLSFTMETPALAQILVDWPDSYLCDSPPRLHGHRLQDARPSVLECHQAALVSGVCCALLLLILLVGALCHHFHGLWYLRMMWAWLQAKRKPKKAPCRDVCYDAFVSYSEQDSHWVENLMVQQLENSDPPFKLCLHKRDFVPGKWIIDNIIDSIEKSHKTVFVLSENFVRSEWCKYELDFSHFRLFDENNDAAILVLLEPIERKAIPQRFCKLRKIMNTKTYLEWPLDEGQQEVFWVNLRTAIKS

[3] = biological target: T1, Toll-like receptor 4 (Mus musculus); assay: Binding affinity to TLR-4 in C57BL/6 mouse peritoneal exudate macrophages assessed as cells binding to PE conjugated anti-TLR-4 monoclonal antibody at 5 ug/ml preincubated for 4 hrs followed by antibody addition by flow cytometry (reference value: 50.8%)
[4] = biological target: T1, Toll-like receptor 4 (Mus musculus); assay: Agonist activity at TLR-4 in C57BL/6 mouse peritoneal exudate macrophages assessed as increase in IL-6 production at 1 to 5 ug/ml measured after 48 hrs by ELISA
[5] = biological target: T1, Toll-like receptor 4 (Mus musculus); assay: Binding affinity to TLR-4 in C57BL/6 mouse peritoneal exudate macrophages assessed as cells binding to PE conjugated anti-TLR-4 monoclonal antibody at 10 ug/ml preincubated for 4 hrs followed by antibody addition by flow cytometry (reference value: 50.8%)
[6] = biological target: T1, Toll-like receptor 4 (Mus musculus); assay: Agonist activity at TLR-4 in C57BL/6 mouse peritoneal exudate macrophages assessed as increase in TNF-alpha production at 1 to 5 ug/ml up to 24 hrs post dose by ELISA relative to thiophenyl-2-O-acetyl-3-O-benzoyl-4,6-O-pyruvate-[…]-D-galactopyranose
[7] = biological target: T1, Toll-like receptor 4 (Mus musculus); assay: Agonist activity at TLR-4 in mouse RAW264.7 cells assessed as increase in IL-6 production at 1 to 5 ug/ml measured after 48 hrs by ELISA; type: cell-based
[8] = Effect on adaptive immune system in mouse splenocytes assessed as polyclonal activation of B-lymphocytes; type: cell-based; conditions: splenocyte
[9] = biological target: T1, Toll-like receptor 4 (Mus musculus); assay: Agonist activity at TLR-4 in TLR2 deficient C57BL/6 mouse peritoneal exudate macrophages assessed as increase in TNF-alpha production at 1 to 5 ug/ml measured after 2 to 24 hrs by ELISA
[10] = biological target: T1, Toll-like receptor 4 (Mus musculus); assay: Binding affinity to TLR-4 in C57BL/6 mouse peritoneal exudate macrophages assessed as cells binding to PE conjugated anti-TLR-4 monoclonal antibody at 1 ug/ml preincubated for 4 hrs followed by antibody addition by flow cytometry (reference value: 50.8%)
[11] = biological target: T1, Toll-like receptor 4 (Mus musculus); assay: Binding affinity to TLR-4 in C57BL/6 mouse peritoneal exudate macrophages assessed as decrease in cells binding to PE conjugated anti-TLR-4 monoclonal antibody preincubated for 4 hrs followed by antibody addition by flow cytometry
[12] = biological target: T1, Toll-like receptor 4 (Mus musculus); assay: Agonist activity at TLR-4 in mouse RAW264.7 cells assessed as increase in TNF-alpha production at 1 to 5 ug/ml measured within 2 hrs by ELISA; type: cell-based
[13] = Effect on adaptive immune system in mouse splenocytes assessed as polyclonal activation of T-lymphocytes; type: cell-based; conditions: splenocyte
[14] = biological target: T1, Toll-like receptor 4 (Mus musculus); assay: Agonist activity at TLR4 in TLR-2 deficient C57BL/6 mouse peritoneal exudate macrophages assessed as induction of IL-6 production at 1 to 5 ug/ml measured after up to 48 hrs by ELISA
[15] = biological target: T1, Toll-like receptor 4 (Mus musculus); assay: Agonist activity at TLR-4 in C57BL/6 mouse peritoneal exudate macrophages assessed as increase in TNF-alpha production at 1 to 5 ug/ml measured within 2 hrs by ELISA

Compound | Activity [1] [%] | Activity [2] [%] | Activity [3] [%] | Activity [4] | Activity [5] [%] | Activity [6] [%] | Activity [7] | Activity [8] | Activity [9] | Activity [10] [%] | Activity [11] | Activity [12] | Activity [13] | Activity [14] | Activity [15]
CCS[C@@H]1O[C@H](COC(C)=O)[C@@H](OC(C)=O)[C@H](OC(C)=O)[C@H]1N1C(=O)c2ccccc2C1=O | 50 | – | – | – | – | – | – | – | – | – | – | – | – | – | –
COC(=O)C1(C)OC[C@H]2O[C@@H](OC3CCC(O[C@@H]4O[C@H](COC(C)=O)[C@@H](OC(C)=O)[C@H](OC(C)=O)[C@H]4N4C(=O)c5ccccc5C4=O)CC3)[C@H](OC(C)=O)[C@@H](OC(=O)c3ccccc3)[C@H]2O1 (stereo partly specified) | – | 33.4 | 37.3 | Active | 24.3 | 50 | Active | Non-Toxic | Active | 45.2 | Dose-dependent effect | Active | Non-Toxic | Active | Active
COC(=O)C1(C)OC[C@H]2O[C@@H](Sc3ccccc3)[C@H](OC(C)=O)[C@@H](OC(=O)c3ccccc3)[C@H]2O1 (stereo partly specified) | 50 | – | – | – | – | – | – | – | – | – | – | – | – | – | –
